Data published in publication PMC3585277, “The C-Terminal Region Mesd Peptide Mimics Full-Length Mesd and Acts as an Inhibitor of Wnt/β-Catenin Signaling in Cancer Cells” (PLoS ONE, 2013).

Columns and labels:
HS578T cells [1] = assay: Cell viability, Cell Titer Glo Assay, HS578T cells; type: cell-based, human
Procedure: (§1) Cell viability was measured in 96-well plates by the Cell Titer Glo Assay (Promega), which is a luminescent assay that is an indicator of live cells as a function of metabolic activity and ATP content.

HS578T cells [2] = assay: Cell proliferation assay (trypan blue exclusion), HS578T cells; type: cell-based, human; conditions: DMEM 2% FBS, 10 days, mMesd 2 µM, hMesd (160–197) 4 µM, control peptide 4 µM, n = 3
Procedure: (§2) Cells were seeded into 6-well plates at a density of 10000 cells/well. RPMI-1640 or DMEM medium containing 2% FBS was used as assay media. After 16 h incubation, the cells were treated with Mesd or its peptide for 10 days. Media were changed every other day. At the end of the experiment, cells were harvested and counted using the trypan blue exclusion assay.

Wnt/β-catenin signaling [3] = assay: Western blot / GST-E-cadherin binding assay of Wnt/β-catenin signaling markers, HS578T cells; type: cell-based, human; conditions: 24 h treatment
Procedure: (§3) Cells in 6-well plates were lysed in 0.5 ml of lysis buffer (phosphate-buffered saline containing 1% Triton X-100 and 1 mM PMSF) at 4°C for 10 min. Equal quantities of protein were subjected to SDS-PAGE under reducing conditions. Following transfer to immobilon-P transfer membrane, successive incubations with anti-HA, anti-Wnt10b, anti-β-catenin, anti-OPG, anti-phosphorylated-LRP6, anti-LRP6, anti-Axin2, anti-Cyclin D1 or anti-actin, and horseradish peroxidase-conjugated secondary antibody were carried out for 60–120 min at room temperature. The immunoreactive proteins were then detected using the ECL system. Films showing immunoreactive bands were scanned by Kodak Digital Science DC120 Zoom Digital Camera.
(§4) The GST-E-cadherin binding assay was carried out exactly as previously described (9). Uncomplexed cytosolic free β-catenin present in 100 µg of total cell lysate was subjected to SDS-PAGE and detected using the monoclonal antibody to β-catenin.

PC-3 cells [4] = assay: Cell viability, Cell Titer Glo Assay, PC-3 cells; type: cell-based, human; conditions: Mesd 2 µM or hMesd (160–197) 2 µM with Adriamycin 0.5 µM, 2 days after pre-treatment
Procedure: as §1

PC-3 cells [5] = assay: Cell proliferation assay (trypan blue exclusion), PC-3 cells; type: cell-based, human; conditions: PC-3, RPMI-1640 2% FBS, 10 days; mMesd 2 µM, hMesd (160–197) 4 µM, control peptide 4 µM; n = 3
Procedure: as §2

Wnt/β-catenin signaling [6] = assay: Super8XTOPFlash luciferase reporter assay, HEK293 cells (Figure S1, S2); type: cell-based, human; conditions: 24 h, peptide 8 µM in Figure S1
Procedure: (§5) Cells were plated into 24-well plates. After overnight culture, the cells were transiently transfected with the TOPFlash or Super8XTOPFlash luciferase construct, β-galactosidase-expressing vector, and pcDNA3.1C-Myc-hLRP5, pCS-Myc-hLRP6 or control vector. After 24 h incubation, cells were treated with Mesd, Mesd peptide, Rspo1 and Wnt3A CM. Cells were then lysed 24 h later and both luciferase and β-galactosidase activities were determined. The luciferase activity was normalized to the β-galactosidase activity.
Supplementary file pone.0058102.s001.tif: Figure S1 Human Mesd C-terminal region peptide blocks Wnt/β-catenin signaling induced by LRP6, Wnt3A and Rspo1 in HEK293 cells. […] The luciferase activity was then measured 24 h later with normalization to the activity of the β-galactosidase. […]
Supplementary file pone.0058102.s002.tif: Figure S2 Mesd blocks Wnt1- or Wnt10b-induced Wnt/β-catenin signaling in HEK293 cells. […] The luciferase activity was then measured 24 h later with normalization to the activity of the β-galactosidase. […] The levels of cytosolic free β-catenin, and total cellular Wnt1, Wnt10b, β-catenin, LRP6, Axin2, cyclin D1 and phosphorylated LRP6 were then analyzed by Western blotting. […]

Wnt/β-catenin signaling [7] = assay: Super8XTOPFlash luciferase reporter assay, PC-3 cells; type: cell-based, human; conditions: 24 h treatment
Procedure: as §5

Wnt/β-catenin signaling [8] = assay: Super8XTOPFlash luciferase reporter assay, HS578T cells; type: cell-based, human; conditions: 24 h treatment
Procedure: as §5

Wnt/β-catenin signaling [9] = assay: Western blot / GST-E-cadherin binding assay of Wnt/β-catenin signaling markers, PC-3 cells; type: cell-based, human
Procedure: as §3, §4

HS578T cells [10] = assay: BrdU proliferation ELISA, HS578T cells; type: cell-based, human; conditions: peptide 2 µM, 7 days in 2% FBS then 2 days in 10% FBS, n = 6
Procedure: (§6) BrdU incorporation into proliferating cells was analyzed by a cell proliferation ELISA BrdU kit (colorimetric, Roche) according to the manufacturer's instructions.

PC-3 cells [11] = assay: BrdU proliferation ELISA, PC-3 cells; type: cell-based, human; conditions: PC-3, peptide 2 µM, 7 days in 2% FBS then 2 days in 10% FBS; n = 6
Procedure: as §6

MDA-MB-231 tumor = conditions: cited from earlier work
LRP6 = assay: 125I-Mesd ligand binding assay, LRP6-transduced HT1080 cells; set-up: species or system human; conditions: for block of Mesd protein binding to LRP6 at the cell surface / concentration at which inhibitory ability on Mesd binding was displayed: 125I-Mesd 5 nM, 4 h at 4°C; for block of Mesd protein binding to LRP6 at the cell surface: LRP6-transduced HT1080 cells; for concentration at which inhibitory ability on Mesd binding was displayed / inhibitory concentration relative to that required for mMesd (155–191): LRP6-expressing cells
Procedure: (§7) Ligand binding assay was carried out exactly as previously described. Cells (2×10^5) were seeded into 12-well dishes 1 day prior to assay. Ligand-binding buffer (minimal Eagle's medium containing 0.6% BSA with a different concentration of radioligand, 0.6 ml/well) was added to cell monolayers, in the absence or the presence of unlabeled Mesd or its peptide, followed by incubation for 4 h at 4°C. Thereafter, overlying buffer containing unbound ligand was removed, and cell monolayers were washed and lysed in low-SDS lysis buffer (62.5 mM Tris-HCl pH 6.8, 0.2% SDS, 10% v/glycerol) and counted.

LRP5 = assay: 125I-Mesd ligand binding assay, LRP5-transfected ldl-7 cells; conditions: for block of Mesd protein binding to LRP5 at the cell surface / concentration at which inhibitory ability on Mesd binding was displayed: 4 h at 4°C; for concentration at which inhibitory ability on Mesd binding was displayed / inhibitory concentration relative to that required for mMesd (155–191): LRP5-expressing cells
Procedure: as §7

OPG expression = assay: Western blot of OPG expression in C2C12 cells; type: cell-based, mouse; conditions: 48 h, mMesd 0.5 µM
Procedure: as §3

LRP6 phosphorylation = assay: Western blot of phosphorylated LRP6 in C2C12 cells; type: cell-based, mouse; conditions: C2C12, Wnt3A CM 5%, 6 h; mMesd 0.5 µM, peptide at indicated concentrations
Procedure: as §3

Wnt/β-catenin signaling [12] = assay: TOPFlash luciferase reporter assay, LRP5-transfected HEK293 cells; type: cell-based, human; conditions: Wnt3A CM 5%, Rspo1 40 ng/ml, mMesd 2 µM, peptide at indicated concentrations, 24 h, normalized to β-galactosidase
Procedure: as §5

Wnt/β-catenin signaling [13] = assay: TOPFlash luciferase reporter assay, LRP6-transfected HEK293 cells; type: cell-based, human; conditions: Wnt3A CM 5%, Rspo1 40 ng/ml, mMesd 2 µM, peptide at indicated concentrations, 24 h, normalized to β-galactosidase
Procedure: as §5

[14] = peptides at indicated concentrations, Figure 1C
[15] = 125I-Mesd 5 nM, peptides at indicated concentrations, LRP5-transfected ldl-7 cells, Figure 1C

Which “inhibition of cell viability” value (HS578T cells [1]; single agent: Mesd protein 2 µM or Adriamycin 0.5 µM, Mesd 4 days pre-treatment, then 2 days, n = 4) does the source give for `COc1cccc2c1C(=O)c1c(O)c3c(c(O)c1C2=O)C[C@@](O)(C(=O)CO)C[C@@H]3O[C@H]1C[C@H](N)[C@H](O)[C@H](C)O1` [Adriamycin, reference compound] here?
Its value is 69%.

Which cell proliferation (HS578T cells [2]) does the source give for “KGGGSKEKNKTKQDKGKKKKEGDLKSRSSKEENRAGNK [hMesd (160–197), human Mesd C-terminal region peptide, corresponding to mMesd (155–191)]” here?
The cell proliferation was “displayed inhibitory effect”.

What about the “levels of cytosolic free β-catenin, LRP6 phosphorylation, Axin2 and cyclin D1” value (from here on “levels of cytosolic free β-catenin”) (Wnt/β-catenin signaling [3]; HS578T) of the same compound?
The value was “greatly decreased”.

And the “levels of cytosolic free β-catenin” value (Wnt/β-catenin signaling [3]; Wnt1-expressing HS578T)?
The value was “greatly decreased”.

And the Adriamycin-induced cytotoxicity (PC-3 cells [4])?
The Adriamycin-induced cytotoxicity was “potentiate”.

What about the cell proliferation (PC-3 cells [5]) of the same compound?
Its cell proliferation is “displayed inhibitory effect”.

And the “Wnt/β-catenin signaling induced by LRP6, Wnt3A, Rspo1, Wnt1 and Wnt10b” value (Wnt/β-catenin signaling [6])?
The value was “displayed inhibitory effects”.

And the “Wnt reporter luciferase activity” value (Wnt/β-catenin signaling [7]; PC-3, endogenous signaling, indicated concentrations)?
Its value is “significantly repressed”.

What about the “Wnt reporter luciferase activity induced by Wnt1” value (Wnt/β-catenin signaling [7]; PC-3 transfected with Wnt1 plasmid) of the same compound?
Its value is “significantly repress”.

And the “Wnt reporter luciferase activity induced by Wnt1” value (Wnt/β-catenin signaling [8]; HS578T transfected with Wnt1 plasmid)?
The value was “significantly repress”.

What about the “Wnt reporter luciferase activity” value (Wnt/β-catenin signaling [8]; HS578T, endogenous signaling, indicated concentrations) of the same compound?
Its value is “significantly repressed”.

And the Adriamycin-induced cytotoxicity (HS578T cells [1]; Mesd 2 µM or hMesd (160–197) 2 µM with Adriamycin 0.5 µM, 2 days after pre-treatment)?
The Adriamycin-induced cytotoxicity was “potentiate”.

And the “levels of cytosolic free β-catenin” value (Wnt/β-catenin signaling [9]; PC-3, 24 h treatment)?
Its value is “greatly decreased”.

What about the “levels of cytosolic free β-catenin” value (Wnt/β-catenin signaling [9]; Wnt1-expressing PC-3, 24 h treatment) of the same compound?
Its value is “greatly decreased”.

With “Mesd C-terminal region peptide: generic wording; in Figure 7B it is hMesd (160–197); in cited work (ref 13) the peptide is not specified (KGGGSKEKNKTKQDKGKKKKEGDLKSRSSKEENRAGNK)” as the compound, how does the BrdU incorporation (HS578T cells [10]) read?
Its BrdU incorporation is “decreased BrdU incorporation”.

What about the BrdU incorporation (PC-3 cells [11]) of the same compound?
Its BrdU incorporation is “decreased BrdU incorporation”.

And the MDA-MB-231 tumor growth (MDA-MB-231 tumor)?
The MDA-MB-231 tumor growth was “suppressed”.

For “mMesd (155–164): Mesd peptide based on the mouse Mesd C-terminal region sequence”, which “block of Mesd protein binding to LRP6 at the cell surface” value (“block of Mesd protein binding to LRP6” for short) (LRP6; [14]) is on record?
Its value is “unable to block”.

What about the “block of Mesd protein binding to LRP5 at the cell surface” value (from here on “block of Mesd protein binding to LRP5”) (LRP5; [15]) of the same compound?
Its value is “unable to block”.

Which “block of Mesd protein binding to LRP6” value (LRP6; [14]) does the source give for “mMesd (155–173): Mesd peptide based on the mouse Mesd C-terminal region sequence (GSYAWEIKDFLVSQDRCAE; UniProt Q9ERE7 155-173, looked up, fragment)” here?
Its value is “inhibition”.

What about the “block of Mesd protein binding to LRP5” value (LRP5; [15]) of the same compound?
The value was “inhibition”.

Which results are given for “mMesd (155–191): shorter mouse Mesd C-terminal region peptide lacking 9 conserved terminal residues of mMesd (150–195) (GSYAWEIKDFLVSQDRCAEVTLEGQMYPGKGGGSKEK; UniProt Q9ERE7 155-191, looked up, fragment)”?
OPG expression induced by Rspo1 plus Wnt3A (OPG expression; C2C12, Rspo1 20 ng/ml, Wnt3A CM 2%, mMesd (155–191) 2 µM): repressed; Wnt3A-induced OPG expression (OPG expression; C2C12, Wnt3A CM 5%, peptide at indicated concentrations): able to suppress; Wnt3A-induced endogenous LRP6 phosphorylation (LRP6 phosphorylation): able to suppress; block of Mesd protein binding to LRP6 at the cell surface (LRP6; 500 nM peptide, Figure 1B, triple determinations): blocked; TOPFlash activity induced by LRP5, LRP5 plus Wnt3A, LRP5 plus Rspo1 (Wnt/β-catenin signaling [12]): blocked; block of Mesd protein binding to LRP5 at the cell surface (LRP5; 125I-Mesd binding assay with LRP5-expressing cells): blocked; TOPFlash activity induced by LRP6, LRP6 plus Wnt3A, LRP6 plus Rspo1 (Wnt/β-catenin signaling [13]): blocked

What does the source list for “mMesd (160–169): Mesd peptide based on the mouse Mesd C-terminal region sequence (EIKDFLVSQD; UniProt Q9ERE7 160-169, looked up, fragment)”?
concentration at which inhibitory ability on Mesd binding was displayed (LRP6): 50 µM; inhibitory concentration relative to that required for mMesd (155–191) (LRP6): 100 times; concentration at which inhibitory ability on Mesd binding was displayed (LRP5; 125I-Mesd 5 nM): 50 µM; inhibitory concentration relative to that required for mMesd (155–191) (LRP5): 100 times

With “mMesd (165–182): Mesd peptide based on the mouse Mesd C-terminal region sequence (LVSQDRCAEVTLEGQMYP; UniProt Q9ERE7 165-182, looked up, fragment)” as the compound, how does the “block of Mesd protein binding to LRP6” value (LRP6; [14]) read?
Its value is “unable to block”.

What about the “block of Mesd protein binding to LRP5” value (LRP5; [15]) of the same compound?
The value was “unable to block”.

Which results are given for “mMesd (174–191): Mesd peptide based on the mouse Mesd C-terminal region sequence (VTLEGQMYPGKGGGSKEK; UniProt Q9ERE7 174-191, looked up, fragment)”?
block of Mesd protein binding to LRP6 at the cell surface (LRP6; [14]): inhibition; block of Mesd protein binding to LRP5 at the cell surface (LRP5; [15]): inhibition

With “mMesd (183–191): Mesd peptide based on the mouse Mesd C-terminal region sequence (GKGGGSKEK; UniProt Q9ERE7 183-191, looked up, fragment)” as the compound, how does the “concentration at which inhibitory ability on Mesd binding was displayed” value (LRP6) read?
Its value is 50 µM.

And the “inhibitory concentration relative to that required for mMesd (155–191)” value (LRP6)?
Its value is 100 times.

What about the “concentration at which inhibitory ability on Mesd binding was displayed” value (LRP5; 125I-Mesd 5 nM) of the same compound?
The value was 50 µM.

And the “inhibitory concentration relative to that required for mMesd (155–191)” value (LRP5)?
The value was 100 times.
